Source: patent US20260256792A1, “TREATMENT OF CHRONIC SPONTANEOUS URTICARIA BY ADMINISTERING (R)-2-[3-[4-AMINO-3-(2-FLUORO-4-PHENOXY-PHENYL)PYRAZOLO[3,4-D]PYRIMIDIN-1-YL]PIPERIDINE-1-CARBONYL]-4-METHYL-4-[4-(OXETAN-3-YL)PIPERAZIN-1-YL]PENT-2-ENENITRILE” (priority 2023, published 2026)

Tested on: moderate-to-severe chronic spontaneous urticaria (CSU)
Assay: Phase 2 CSU study: urticaria activity score over 7 days (UAS7)
Format: in vivo, human
Conditions: ITT
Source text: The study comprises a 12 week, randomized, double-blind, placebo-controlled, multi-center, dose-ranging efficacy and safety phase, followed by a 40 week open label extension (OLE) phase (see FIG. 1). The study consists of three phases and an optional OLE phase. […] Clinically, CSU is characterized by the spontaneous and recurrent appearance of pruritic hives. The proposed primary endpoints were the UAS7 at Week 12 in EU and EU reference countries and the ISS7 in the US. Regardless of where a participant was from, all assessments were the same. The UAS7 score is a composite score containing both the HSS7 and the ISS7. This allowed a global assessment of the two key components of urticaria: hives and itch. […] The UAS is a validated PRO measure. […] The daily UAS scores range from 0 to 6 point/day. […] Patients were to complete the UAS using the e-diary. […] The following secondary endpoints were to be analyzed using the same approach as for the primary endpoint: • Change from baseline in UAS7 at Week 4 • Change from baseline in UAS7 at Week 12 (for US and US reference countries) • Change from baseline in ISS7 at Week 12 (except US and US reference countries) • Change from baseline in HSS7 at Week 12 The following responder secondary endpoints were to be analyzed using the Cochran-Mantel-Haenszel test adjusted by region: • Proportion of participants with UAS7<6 at Week 12 • Proportion of participants with UAS7=0 at Week 12 Participants who received selected prohibited medications and/or rescue medications were to be considered as non-responders for time points after the medication usage. For other participants, all available data including those collected during the off-treatment period were to be used to determine the responder/non-responder status. Missing data were to be considered as non-responders.

CC(C)(C=C(C#N)C(=O)N1CCC[C@@H](n2nc(-c3ccc(Oc4ccccc4)cc3F)c3c(N)ncnc32)C1)N1CCN(C2COC2)CC1 [rilzabrutinib, (R)-2-[3-[4-amino-3-(2-fluoro-4-phenoxy-phenyl)pyrazolo[3,4-d]pyrimidin-1-yl]piperidine-1-carbonyl]-4-methyl-4-[4-(oxetan-3-yl)piperazin-1-yl]pent-2-enenitrile]
Responder n (%), UAS7 ≤6 (400 mg QPM, Week 12): 2 (5.3) n (%)
Imputed non-responder n (%), UAS7 = 0 (400 mg TID, Week 1): 0 n (%)
Imputed non-responder n (%), UAS7 ≤6 (400 mg TID, Week 1): 0 n (%)
Non-responder n (%), UAS7 = 0 (400 mg TID, Week 1): 40 (97.6) n (%)
Non-responder n (%), UAS7 ≤6 (400 mg TID, Week 1): 31 (75.6) n (%)
OR for rilzabrutinib vs. placebo, UAS7 = 0 (400 mg TID, Week 1): 1.084
RRD (%) for rilzabrutinib vs. placebo, UAS7 = 0 (400 mg TID, Week 1): 0.2 %
RRD (%) for rilzabrutinib vs. placebo, UAS7 ≤6 (400 mg TID, Week 1): 17.6 %
Responder n (%), UAS7 = 0 (400 mg TID, Week 1): 1 (2.4) n (%)
Responder n (%), UAS7 ≤6 (400 mg TID, Week 1): 10 (24.4) n (%)
Imputed non-responder n (%), UAS7 = 0 (400 mg TID, Week 2): 0 n (%)
Imputed non-responder n (%), UAS7 ≤6 (400 mg TID, Week 2): 0 n (%)
Non-responder n (%), UAS7 = 0 (400 mg TID, Week 2): 35 (85.4) n (%)
Non-responder n (%), UAS7 ≤6 (400 mg TID, Week 2): 30 (73.2) n (%)
OR for rilzabrutinib vs. placebo, UAS7 = 0 (400 mg TID, Week 2): 6.522
OR for rilzabrutinib vs. placebo, UAS7 ≤6 (400 mg TID, Week 2): 6.049
RRD (%) for rilzabrutinib vs. placebo, UAS7 = 0 (400 mg TID, Week 2): 11.0 %
RRD (%) for rilzabrutinib vs. placebo, UAS7 ≤6 (400 mg TID, Week 2): 19.4 %
Responder n (%), UAS7 = 0 (400 mg TID, Week 2): 6 (14.6) n (%)
Responder n (%), UAS7 ≤6 (400 mg TID, Week 2): 11 (26.8) n (%)
Imputed non-responder n (%), UAS7 = 0 (400 mg TID, Week 3): 0 n (%)
Imputed non-responder n (%), UAS7 ≤6 (400 mg TID, Week 3): 0 n (%)
Non-responder n (%), UAS7 = 0 (400 mg TID, Week 3): 37 (90.2) n (%)
Non-responder n (%), UAS7 ≤6 (400 mg TID, Week 3): 30 (73.2) n (%)
OR for rilzabrutinib vs. placebo, UAS7 = 0 (400 mg TID, Week 3): 4.480
OR for rilzabrutinib vs. placebo, UAS7 ≤6 (400 mg TID, Week 3): 3.055
RRD (%) for rilzabrutinib vs. placebo, UAS7 = 0 (400 mg TID, Week 3): 6.9 %
RRD (%) for rilzabrutinib vs. placebo, UAS7 ≤6 (400 mg TID, Week 3): 14.9 %
Responder n (%), UAS7 = 0 (400 mg TID, Week 3): 4 (9.8) n (%)
Responder n (%), UAS7 ≤6 (400 mg TID, Week 3): 11 (26.8) n (%)
Imputed non-responder n (%), UAS7 = 0 (400 mg TID, Week 4): 3 (7.3) n (%)
Imputed non-responder n (%), UAS7 ≤6 (400 mg TID, Week 4): 3 (7.3) n (%)
Non-responder n (%), UAS7 = 0 (400 mg TID, Week 4): 37 (90.2) n (%)
Non-responder n (%), UAS7 ≤6 (400 mg TID, Week 4): 34 (82.9) n (%)
OR for rilzabrutinib vs. placebo, UAS7 = 0 (400 mg TID, Week 4): 1.867
OR for rilzabrutinib vs. placebo, UAS7 ≤6 (400 mg TID, Week 4): 1.217
RRD (%) for rilzabrutinib vs. placebo, UAS7 = 0 (400 mg TID, Week 4): 4.0 %
RRD (%) for rilzabrutinib vs. placebo, UAS7 ≤6 (400 mg TID, Week 4): 2.4 %
Responder n (%), UAS7 = 0 (400 mg TID, Week 4): 4 (9.8) n (%)
Responder n (%), UAS7 ≤6 (400 mg TID, Week 4): 7 (17.1) n (%)
Imputed non-responder n (%), UAS7 = 0 (400 mg TID, Week 5): 3 (7.3) n (%)
Imputed non-responder n (%), UAS7 ≤6 (400 mg TID, Week 5): 3 (7.3) n (%)
Non-responder n (%), UAS7 = 0 (400 mg TID, Week 5): 34 (82.9) n (%)
Non-responder n (%), UAS7 ≤6 (400 mg TID, Week 5): 27 (65.9) n (%)
OR for rilzabrutinib vs. placebo, UAS7 = 0 (400 mg TID, Week 5): 7.606
OR for rilzabrutinib vs. placebo, UAS7 ≤6 (400 mg TID, Week 5): 8.858
RRD (%) for rilzabrutinib vs. placebo, UAS7 = 0 (400 mg TID, Week 5): 13.2 %
RRD (%) for rilzabrutinib vs. placebo, UAS7 ≤6 (400 mg TID, Week 5): 26.0 %
Responder n (%), UAS7 = 0 (400 mg TID, Week 5): 7 (17.1) n (%)
Responder n (%), UAS7 ≤6 (400 mg TID, Week 5): 14 (34.1) n (%)
Imputed non-responder n (%), UAS7 = 0 (400 mg TID, Week 6): 5 (12.2) n (%)
Imputed non-responder n (%), UAS7 ≤6 (400 mg TID, Week 6): 5 (12.2) n (%)
Non-responder n (%), UAS7 = 0 (400 mg TID, Week 6): 32 (78.0) n (%)
Non-responder n (%), UAS7 ≤6 (400 mg TID, Week 6): 28 (68.3) n (%)
OR for rilzabrutinib vs. placebo, UAS7 = 0 (400 mg TID, Week 6): 9.649
OR for rilzabrutinib vs. placebo, UAS7 ≤6 (400 mg TID, Week 6): 2.273
RRD (%) for rilzabrutinib vs. placebo, UAS7 = 0 (400 mg TID, Week 6): 17.2 %
RRD (%) for rilzabrutinib vs. placebo, UAS7 ≤6 (400 mg TID, Week 6): 14.2 %
Responder n (%), UAS7 = 0 (400 mg TID, Week 6): 9 (22.0) n (%)
Responder n (%), UAS7 ≤6 (400 mg TID, Week 6): 13 (31.7) n (%)
Imputed non-responder n (%), UAS7 = 0 (400 mg TID, Week 7): 6 (14.6) n (%)
Imputed non-responder n (%), UAS7 ≤6 (400 mg TID, Week 7): 6 (14.6) n (%)
Non-responder n (%), UAS7 = 0 (400 mg TID, Week 7): 37 (90.2) n (%)
Non-responder n (%), UAS7 ≤6 (400 mg TID, Week 7): 30 (73.2) n (%)
OR for rilzabrutinib vs. placebo, UAS7 = 0 (400 mg TID, Week 7): 4.480
OR for rilzabrutinib vs. placebo, UAS7 ≤6 (400 mg TID, Week 7): 3.247
